Experimental data: patent publication US4001263A, “5-Aryl-1,2,3,4-tetrahydro-γ-carbolines” (Pfizer Inc., priority 1975, dated 1977)
Structures can show the parent of a compound that is named as a salt. Where two headings read alike, the source gives them in different places.

System: amphetamine-induced symptoms in rats
Experiment: antagonism of amphetamine-induced symptoms in rats (block of characteristic amphetamine cage movement behavior)
Assay type: in vivo
Conditions: Rattus norvegicus, ip
Text: The tranquilizing agents of the present invention are characterized by relief of such schizophrenic manifestations in humans as hallucinations, hostility, suspiciousness, emotional or social withdrawal, anxiety, agitation and tension. Standard procedures of detecting and comparing tranquilizing activity of compounds in this series and for which there is an excellent correlation with human efficacy is the antagonism of amphetamine-induced symptoms in rats test, as taught by A. Weissman, et al., J. Pharmacol. Exp. Ther., 151, 339 (1966) and by Quinton, et al.,Nature, 200, 178 (1963).
The effects of the compounds of the present invention on prominent amphetamine-induced symptoms were studied in rats by a rating scale modeled after the one reported by Quinton and Halliwell, and Weissman. Groups of five rats were placed in a covered plastic cage measuring approximately 26 cm. × 42 cm. × 16 cm. After a brief period of acclimation in the cage, the rats in each groups were treated intraperitoneally (i.p.) with the test compound. […] On the basis of dose-response data after amphetamine it was possible to determine the effective dose of the compound necessary to antagonize or block the characteristic amphetamine behavior of cage movement for 50 percent of the rats tested (ED50). The time of rating chosen coincides with the peak action of amphetamine which is 60-80 min. after treatment with this agent.
Employing the above-described procedure, the following compounds were tested for their ability to block the behavior effects of amphetamine, the results being reported as the ED50 in mg./kg. at the indicated times: […]

[1] = rats, i.p., d-amphetamine sulfate 5 mg./kg. i.p. given 1 hr. after test compound, read-out: ED50 to antagonize or block amphetamine behavior, 1 hr.
[2] = rats, i.p., d-amphetamine sulfate 5 mg./kg. i.p. given 5 hrs. after test compound, read-out: ED50 to antagonize or block amphetamine behavior, 5 hrs.
[3] = rats, i.p., d-amphetamine sulfate 5 mg./kg. i.p. given 24 hrs. after test compound, read-out: ED50 to antagonize or block amphetamine behavior, 24 hrs.

SMILES	ED50 [1]	ED50 [2]	ED50 [3]	ED50 (1 h, read-out: ED50 to antagonize or block amphetamine behavior, 1 hr.)
CN1CCc2c(c3cc(Br)ccc3n2-c2ccccc2)C1 [Br, H, CH3]	3.2 to 10 mg/kg	–	–	–
CCN1CCc2c(c3cc(Cl)ccc3n2-c2ccccc2)C1 [Cl, H, C2H5]	3.2 to 10 mg/kg	–	–	–
CN1CCc2c(c3cc(Cl)ccc3n2-c2ccccc2)C1 [Cl, H, CH3, 8-Chloro-5-phenyl-2-methyl-1,2,3,4-tetrahydro-γ-carboline hydrochloride]	3.2 to 10 mg/kg	–	–	–
CC(C)(C)CCN1CCc2c(c3cc(F)ccc3n2-c2ccc(F)cc2)C1 [F, F, (CH3)3C(CH2)2, 8-fluoro-5-(p-fluorophenyl)-2-(3,3-dimethyl-n-buty)-1,2,3,4-tetrahydro-γ-carboline]	1 to 3.2 mg/kg	> 10 mg/kg	> 10 mg/kg	–
CCN1CCc2c(c3cc(F)ccc3n2-c2ccc(F)cc2)C1 [F, F, C2H5, 8-Fluoro-5-(p-fluorophenyl)-2-ethyl-1,2,3,4-tetrahydro-γ-carboline hydrochloride]	3.2 to 10 mg/kg	> 10 mg/kg	> 10 mg/kg	–
CN1CCc2c(c3cc(F)ccc3n2-c2ccc(F)cc2)C1 [F, F, CH3, 8-Fluoro-5-(p-fluorophenyl)-2-methyl-1,2,3,4-tetrahydro-γ-carboline hydrochloride]	1 to 3.2 mg/kg	–	–	–
CCCN1CCc2c(c3cc(F)ccc3n2-c2ccc(F)cc2)C1 [F, F, n-C3H7, 8-fluoro-5-(p-fluorophenyl)-2-n-propyl-1,2,3,4-tetrahydro-γ-carboline]	3.2 to 10 mg/kg	> 10 mg/kg	> 3.2 mg/kg	–
Fc1ccc(C=CCCN2CCc3c(c4cc(F)ccc4n3-c3ccc(F)cc3)C2)cc1 [F, F, p-FC6H4CHCH(CH2)2, 8-Fluoro-5-(p-fluorophenyl)-2-[4-(p-fluorophenyl)-3-butenyl]-1,2,3,4-tetrahydro-γ-carboline]	3.2 to 10 mg/kg	1 to 3.2 mg/kg	> 3.2 mg/kg	–
CN1CCc2c(c3cc(F)ccc3n2-c2ccccc2)C1 [F, H, CH3]	3.2 to 10 mg/kg	–	–	–
c1ccc(CN2CCc3c(c4ccccc4n3-c3ccccc3)C2)cc1 [H, H, CH2C6H5, 5-phenyl-2-benzyl-1,2,3,4-tetrahydro-γ-carboline, reference compound]	> 32 mg/kg	–	–	–
CN1CCc2c(c3ccccc3n2-c2ccccc2)C1 [H, H, CH3, 5-phenyl-2-methyl-1,2,3,4-tetrahydro-γ-carboline, reference compound]	10 to 32 mg/kg	–	–	–
CN(C)CCCN1c2ccccc2Sc2ccc(Cl)cc21 [chlorpromazine, reference compound]	–	–	–	7 mg/kg
